Results: a flash point compilation (Sun et al. 2020)

Structure (SMILES) | flash point [°C]
ClCCCBr [1-bromo-3-chloropropane] | 57.00
Cc1cccc(Br)c1 [1-bromo-3-methylbenzene] | 60.00
Fc1ccc(Br)cc1 [1-bromo-4-fluorobenzene] | 60.00
CC(Br)c1ccccc1 (configuration not stated) [1-bromoethylbenzene] | 96.00
CCCCOCC(C)O (configuration not stated) [1-butoxypropan-2-ol] | 63.00
FC(F)=C(F)Cl [1-chloro-1,2,2-trifluoroethene] | -27.00
CCC(Cl)[N+](=O)[O-] (configuration not stated) [1-chloro-1-nitropropane] | 62.00
O=[N+]([O-])c1ccc(Cl)c([N+](=O)[O-])c1 [1-chloro-2,4-dinitrobenzene] | 194.00
ClCc1ccccc1Cl [1-chloro-2-(chloromethyl)benzene] | 91.00
C=Cc1ccccc1Cl [1-chloro-2-ethenylbenzene] | 59.00
CCCCCCl [1-chloropentane] | 1.00
CC(O)CCl (configuration not stated) [1-chloropropan-2-ol] | 52.00
C=COCCOC [1-ethenoxy-2-methoxyethane] | 18.00
C=COCCCC [1-ethenoxybutane] | -9.00
C=Cc1cccc(C)c1 [1-ethenyl-3-methylbenzene] | 60.00
C=Cc1ccc(C)cc1 [1-ethenyl-4-methylbenzene] | 52.00
CCOCCOCCOCC [1-ethoxy-2-(2-ethoxyethoxy)ethane] | 54.00
CCCCOCC [1-ethoxybutane] | 4.00
CCOCC(C)O (configuration not stated) [1-ethoxypropan-2-ol] | 40.00
CCOCC(C)OC(C)=O (configuration not stated) [1-ethoxypropan-2-yl acetate] | 53.00
Cc1ccccc1F [1-fluoro-2-methylbenzene] | 13.00
C=C(C)C(=O)OC(C)CO (configuration not stated) [1-hydroxypropan-2-yl 2-methylprop-2-enoate] | 121.00

Structure (SMILES) | flash point [°C]
O=[N+]([O-])c1cccc(I)c1 [1-iodo-3-nitrobenzene] | 72.00
O=C=Nc1ccc(Cc2ccc(N=C=O)cc2)cc1 [1-isocyanato-4-[(4-isocyanatophenyl)methyl]benzene] | 218.00
CCCCN=C=O [1-isocyanatobutane] | 19.00
COCCOCCOCCOC [1-methoxy-2-[2-(2-methoxyethoxy)ethoxy]ethane] | 111.00
COCC(C)O (configuration not stated) [1-methoxypropan-2-ol] | 36.00
CC1(C2CCC3(C)OC3C2)CO1 (configuration not stated) [1-methyl-4-(2-methyloxiran-2-yl)-7-oxabicyclo[4.1.0]heptane] | 118.00
Cc1ccc([N+](=O)[O-])cc1 [1-methyl-4-nitrobenzene] | 106.00
C=C(C)C1CC=C(C)CC1 (configuration not stated) [1-methyl-4-prop-1-en-2-ylcyclohexene] | 46.00
Cc1ccc(C(C)C)cc1 [1-methyl-4-propan-2-ylbenzene] | 47.00
CC1=CCC(=C(C)C)CC1 [1-methyl-4-propan-2-ylidenecyclohexene] | 64.00
CC1(O)CCCCC1 [1-methylcyclohexan-1-ol] | 67.00
CN1CCCC1=O [1-methylpyrrolidin-2-one] | 96.00
O=[N+]([O-])c1ccccc1-c1ccccc1 [1-nitro-2-phenylbenzene] | 143.00
O=[N+]([O-])c1cccc(C(F)(F)F)c1 [1-nitro-3-(trifluoromethyl)benzene] | 101.00
CC[N+](=O)[O-] [1-nitroethane] | 41.00
CC(N)c1ccccc1 (configuration not stated) [1-phenylethanamine] | 79.00
CC(O)c1ccccc1 (configuration not stated) [1-phenylethanol] | 85.00
CC(N)Cc1ccccc1 (configuration not stated) [1-phenylpropan-2-amine] | 27.00
CCCOCCC [1-propoxypropane] | 21.00
Cc1ccc(C(C)(C)C)cc1 [1-tert-butyl-4-methylbenzene] | 58.00
c1c[nH]cn1 [1H-imidazole] | 145.00
c1cc[nH]c1 [1H-pyrrole] | 39.00

Structure (SMILES) | flash point [°C]
N#CC(Cl)(Cl)Cl [2,2,2-trichloroacetonitrile] | 74.00
CC(C)C(O)C(C)(C)CO (configuration not stated) [2,2,4-trimethylpentane-1,3-diol] | 113.00
O=CC(Cl)Cl [2,2-dichloroacetaldehyde] | 60.00
O=C(Cl)C(Cl)Cl [2,2-dichloroacetyl chloride] | 66.00
OCC(Cl)Cl [2,2-dichloroethanol] | 78.00
C=C1C2CCC(C2)C1(C)C (configuration not stated) [2,2-dimethyl-3-methylidenebicyclo[2.2.1]heptane] | 33.00
Oc1c(Cl)cc(Cl)c(Cl)c1Cl [2,3,4,6-tetrachlorophenol] | 100.00
CCCCCCCC(=O)OCC(COC(=O)CCCCCCC)OC(=O)CCCCCCC [2,3-di(octanoyloxy)propyl octanoate] | 177.00
O=CC(Cl)=C(Cl)C(=O)O [2,3-dichloro-4-oxobut-2-enoic acid] | 100.00
C=C(Cl)CCl [2,3-dichloroprop-1-ene] | 10.00
OCC(Cl)CCl (configuration not stated) [2,3-dichloropropan-1-ol] | 91.00
Oc1ccc(Br)cc1Br [2,4-dibromophenol] | 113.00
O=Cc1ccc(Cl)cc1Cl [2,4-dichlorobenzaldehyde] | 135.00
Cc1ccc(N)c(C)c1 [2,4-dimethylaniline] | 96.00
Nc1cc(Cl)ccc1Cl [2,5-dichloroaniline] | 113.00
Cc1cccc(C)c1N.Cl [2,6-dimethylaniline;hydrochloride] | 91.00
CC(Oc1ccc(Cl)cc1Cl)C(=O)O (configuration not stated) [2-(2,4-dichlorophenoxy)propanoic acid] | 204.00
CCCCOCCOCCSC#N [2-(2-butoxyethoxy)ethyl thiocyanate] | 52.00
OCCOCCO [2-(2-hydroxyethoxy)ethanol] | 143.00
OCCN1CC1 [2-(aziridin-1-yl)ethanol] | 67.00
CCN(CC)CCO [2-(diethylamino)ethanol] | 60.00
CN(C)CCO [2-(dimethylamino)ethanol] | 41.00

Next, values leading:

flash point [°C] | Structure (SMILES)
138.00 | CC(=O)OCC(COC(C)=O)OC(C)=O [2,3-diacetyloxypropyl acetate]
59.00 | C=C(C)C(=O)OCC(Br)CBr (configuration not stated) [2,3-dibromopropyl 2-methylprop-2-enoate]
-29.00 | CC(C)C(C)C [2,3-dimethylbutane]
-18.00 | CC1OC1C (configuration not stated) [2,3-dimethyloxirane]
61.00 | CCC(C)C(C)CO (configuration not stated) [2,3-dimethylpentan-1-ol]
2.00 | C=C(C)CC(C)(C)C [2,4,4-trimethylpent-1-ene]
58.00 | Cc1cc(C)nc(C)c1 [2,4,6-trimethylpyridine]
124.00 | CN(C)Cc1cc(CN(C)C)c(O)c(CN(C)C)c1 [2,4,6-tris[(dimethylamino)methyl]phenol]
127.00 | CCCCCCCCCc1ccc(O)c(CCCCCCCCC)c1 [2,4-di(nonyl)phenol]
-1.00 | Cc1ccc(C)o1 [2,5-dimethylfuran]
40.00 | CC1CCC2CC1C2(C)C (configuration not stated) [2,6,6-trimethylbicyclo[3.1.1]heptane]
135.00 | O=Cc1c(Cl)cccc1Cl [2,6-dichlorobenzaldehyde]
60.00 | CC(C)CC(=O)CC(C)C [2,6-dimethylheptan-4-one]
110.00 | CCOCCOCCOC(C)=O [2-(2-ethoxyethoxy)ethyl acetate]
141.00 | CCCCCCOCCOCCO [2-(2-hexoxyethoxy)ethanol]
137.00 | OCCNCCO [2-(2-hydroxyethylamino)ethanol]

flash point [°C] | Structure (SMILES)
193.00 | Oc1cc(O)c2cc(O)c(-c3cc(O)c(O)c(O)c3)[o+]c2c1.[Cl-] [2-(3,4,5-trihydroxyphenyl)chromenylium-3,5,7-triol;chloride]
23.00 | CC(C)=CCC1CCCC1=O (configuration not stated) [2-(3-methylbut-2-enyl)cyclopentan-1-one]
99.00 | CCCCN(CCO)CCCC [2-(dibutylamino)ethanol]
91.00 | C=CC(=O)OCCN(CC)CC [2-(diethylamino)ethyl prop-2-enoate]
74.00 | C=C(C)C(=O)OCCN(C)C [2-(dimethylamino)ethyl 2-methylprop-2-enoate]
71.00 | CCNCCO [2-(ethylamino)ethanol]
64.00 | C(OCC1CO1)C1CO1 (configuration not stated) [2-(oxiran-2-ylmethoxymethyl)oxirane]
33.00 | CC(C)OCC1CO1 (configuration not stated) [2-(propan-2-yloxymethyl)oxirane]
96.00 | C=C(C)C(=O)OCCNC(C)(C)C [2-(tert-butylamino)ethyl 2-methylprop-2-enoate]
67.00 | ClC(Cl)(Cl)C1CO1 (configuration not stated) [2-(trichloromethyl)oxirane]
235.00 | CCCCCCCCCCOC(=O)c1ccccc1C(=O)OCCCCCCCC [2-O-decyl 1-O-octyl benzene-1,2-dicarboxylate]
135.00 | CCOCCOCCOCCO [2-[2-(2-ethoxyethoxy)ethoxy]ethanol]
166.00 | OCCOCCOCCO [2-[2-(2-hydroxyethoxy)ethoxy]ethanol]
141.00 | CC(O)COC(C)COC(C)CO (configuration not stated) [2-[2-(2-hydroxypropoxy)propoxy]propan-1-ol]
79.00 | CN(C)CCOCCN(C)C [2-[2-(dimethylamino)ethoxy]-N,N-dimethylethanamine]
